Reference: paper PMC8105289 (European journal of medicinal chemistry, 2021)
Marks after values point to notes of the source that are not given here.

Experiments:
[1] = shake-flask; conditions: not told
[2] = potentiometric titration; conditions: not told
[3] = Parallel artificial membrane permeability assay; conditions: for Papp: PAMPA; for PAMPA logPapp: log of the apparent permeability coefficient; for PAMPA % retention (membrane retention): Corning Gentest pre-coated PAMPA plate, HPLC-UV
[4] = logP / logD7.4 by potentiometric titration; conditions: for logD: n-octanol/aqueous buffer, pH 7.4; for logP: n-octanol/water
[5] = ΔlogP
[6] = pKa by potentiometric titration
[7] = logD7.4 by shake-flask method; conditions: for logD: n-octanol/aqueous buffer, pH 7.4
[8] = ionic strength adjusted water (0.15 M KCl), pKa, potentiometric titration, Sirius T3, 0.15 M KCl
[9] = ionic strength adjusted water (0.15 M KCl), pKa units higher than the pKa value of 9
[10] = potentiometric titration, Sirius T3, 0.15 M KCl
[11] = potentiometric titration, Sirius T3

| log partition n-octanol / aqueous buffer pH 7.4 [1] | log partition n-octanol / aqueous buffer pH 7.4 [2] | log partition n-octanol / water (0.15 M KCl) [2] | Papp [3] | PAMPA logPapp [3] | logD [4] | logP [4] | logD [7] | Structure (SMILES) | also measured |
| --- | --- | --- | --- | --- | --- | --- | --- | --- | --- |
| 1.45 log10 concentration ratio |  |  |  |  |  |  |  | CN(C)S(=O)(=O)NC1(CCc2ccccc2)CS(=O)C1 (stereo not drawn) |  |
|  | 0.87 log10 concentration ratio | 0.88±0.02 log10 concentration ratio |  |  |  |  |  | CS(=O)(=O)NC1(CCc2ccccc2)CS(=O)C1 (stereo not drawn) |  |
| 0.76 log10 concentration ratio |  |  |  |  |  |  |  | O=S1CC(CCc2ccccc2)(NS(=O)(=O)c2ccccc2)C1 (stereo not drawn) |  |
|  | 1.58 log10 concentration ratio | 1.58±0.06 log10 concentration ratio | 67.9 nm/s | −5.17 | 1.58 | 1.58 ± 0.06 |  | CC1(NS(=O)(=O)CCc2ccccc2)COC1 [Compound 13, N-(3-Methyloxetan-3-yl)-2-phenylethane-1-sulfonamide] | ΔlogPcyclohexane ([5]; logPoctanol-water − logPcyclohexane-water): 1.87 ± 0.04; ΔlogPheptane ([5]; logPoctanol-water − logPheptane-water): 1.60 ± 0.05; ΔlogPtoluene ([5]; logPoctanol-water − logPtoluene-water): 0.43 ± 0.04 |
| 1.18 log10 concentration ratio |  |  | 21.1 nm/s | −5.68 |  |  | 1.18 | CC(=O)NC1(CCc2ccccc2)CS(=O)(=O)C1 [Compound 14, N-(1,1-Dioxido-3-phenethylthietan-3-yl)acetamide] | pKa [6, 8]: > 12 |
| 2.76 log10 concentration ratio |  |  | 70.6 nm/s | −5.2 |  |  | 2.76 | O=S(=O)(NC1(CCc2ccccc2)COC1)c1ccccc1 [Compound 16, N-(3-Phenethyloxetan-3-yl)benzenesulfonamide] | PAMPA % retention (membrane retention) [3]: 0.260% |
| 1.96 log10 concentration ratio |  |  | 102 nm/s | −4.99 |  |  | 1.96 | CN(C)S(=O)(=O)NC1(CCc2ccccc2)COC1 [Compound 17, N,N-Dimethyl-[3-(2-phenylethyl)oxetane-3-yl]sulfamoyl-amine] |  |
| 2.44 log10 concentration ratio |  |  | 146 nm/s | −4.8 |  |  | 2.44 | CS(=O)(=O)NC1(CCc2ccccc2)CSC1 [Compound 18, N-(3-Phenethylthietan-3-yl)methanesulfonamide] | pKa [6, 9]: > 5 |
| 2.96 log10 concentration ratio |  |  |  |  |  |  | 2.96 | O=S(=O)(NC1(CCc2ccccc2)CSC1)c1ccccc1 [Compound 19, N-(3-Phenethylthietan-3-yl)benzenesulfonamide] | pKa [6, 8]: > 12 |
| 2.83 log10 concentration ratio |  |  | 114 nm/s | −4.9 |  |  | 2.83 | CN(C)S(=O)(=O)NC1(CCc2ccccc2)CSC1 [Compound 20, N,N-Dimethyl-[3-(2-phenylethyl)thietan-3-yl]sulfamoyl-amine] | PAMPA % retention (membrane retention) [3]: 0.373% |
|  |  |  |  |  |  |  |  | CS(=O)(=O)N[C@]1(CCc2ccccc2)C[S@+]([O-])C1 [Compound 21, cis-N-(1-Oxido-3-phenethylthietan-3-yl)methanesulfonamide] | pKa units higher than the pKa value of 9 [6]: > 5; pKa [6, 10]: 9.87±0.01; logP [4, 11]: 0.88±0.02 |
|  |  |  |  | −5.47 |  |  |  | CN(C)S(=O)(=O)N[C@]1(CCc2ccccc2)C[S@+]([O-])C1 [Compound 23, cis-3-[(Dimethylsulfamoyl)amino]-3-(2-phenylethyl)-1lambda4-thietan-1-one] | pKa [6, 10]: 10.33±0.02; logD7.4 ([7]; n-octanol/aqueous buffer pH 7.4, shake-flask assay run by Analiza): 1.45^† |
|  | 1.03 log10 concentration ratio | 1.03±0.01 log10 concentration ratio | 36.6 nm/s | −5.4 | 1.03 | 1.03 ± 0.01 |  | CS(=O)(=O)NC1(CCc2ccccc2)CS(=O)(=O)C1 [Compound 24, N-(1,1-Dioxido-3-phenethylthietan-3-yl)methanesulfonamide] | pKa [6, 9]: > 5 |
| 1.89 log10 concentration ratio |  |  |  |  |  |  | 1.89 | O=S1(=O)CC(CCc2ccccc2)(NS(=O)(=O)c2ccccc2)C1 [Compound 25, N-(1,1-Dioxido-3-phenethylthietan-3-yl)benzenesulfonamide] |  |
|  | 1.82 log10 concentration ratio | 1.83±0.05 log10 concentration ratio | 44.3 nm/s | −5.35 | 1.82 | 1.83 ± 0.05 |  | CN(C)S(=O)(=O)NC1(CCc2ccccc2)CS(=O)(=O)C1 [Compound 26, 3-[(Dimethylsulfamoyl)amino]-3-(2-phenylethyl)-1lambda6-thietane-1,1-dione] | PAMPA % retention (membrane retention) [3]: 0.105% |
|  | −0.42 log10 concentration ratio | 0.58±0.02 log10 concentration ratio | 11.6 nm/s | −5.94 | -0.42 | 0.58 ± 0.02 |  | CS(=O)(=O)Nc1cc(-c2ccccc2)on1 [Compound 27, N-(5-Phenylisoxazol-3-yl)methanesulfonamide] |  |
|  | 0.99 log10 concentration ratio | 1.76±0.03 log10 concentration ratio | 57.9 nm/s | −5.24 | 0.99 | 1.76 ± 0.03 |  | O=S(=O)(Nc1cc(-c2ccccc2)on1)c1ccccc1 [Compound 28, N-(5-Phenylisoxazol-3-yl)benzenesulfonamide] |  |
|  | 0.42 log10 concentration ratio | 0.85±0.01 log10 concentration ratio |  |  |  |  |  | CN(C)S(=O)(=O)Nc1cc(-c2ccccc2)on1 [Compound 29, N-(5-Phenylisoxazol-3-yl)-N,N-dimethylaminesulfonamide] | pKa [6, 10]: 5.62±0.02; PAMPA % retention (membrane retention) [3]: 0.131%; logP [4, 11]: 0.85±0.01 |
|  | 0.06 log10 concentration ratio | 1.16±0.03 log10 concentration ratio | 24.2 nm/s | −5.62 | 0.06 | 1.16 ± 0.03 |  | CS(=O)(=O)Nc1cn(-c2ccccc2)nn1 [Compound 30, N-(1-Phenyl-1H-1,2,3-triazol-4-yl)methanesulfonamide] |  |
|  | 1.06 log10 concentration ratio | 2.55±0.04 log10 concentration ratio | 40.9 nm/s | −5.39 | 1.06 | 2.55 ± 0.04 |  | O=S(=O)(Nc1cn(-c2ccccc2)nn1)c1ccccc1 [Compound 31, N-(1-Phenyl-1H-1,2,3-triazol-4-yl)benzenesulfonamide] |  |
|  | 0.69 log10 concentration ratio | 1.72±0.01 log10 concentration ratio |  | −5.42 |  |  |  | CN(C)S(=O)(=O)Nc1cn(-c2ccccc2)nn1 [Compound 32, N-(1-Phenyl-1H-1,2,3-triazol-4-yl)-N,N-dimethylaminesulfonamide] | pKa [6, 10]: 6.42±0.01; logP [4, 11]: 1.72±0.01 |
